Entries after “also recorded” stand apart in the source; their conditions may differ.
Legend:
[1] = test system: TNBC cells; parameters: method as in Bevill et al., [2019]; conditions: single agent; ref Bevill et al., [2019]; cited from earlier work
[2] = test system: panel of receptors, channels and transporters; parameters: method as in https://www.thesgc.org/chemical-probes/BAZ2-ICR; conditions: ref https://www.thesgc.org/chemical-probes/BAZ2-ICR; cited from earlier work
[3] = test system: 22Rv1 (AR‐positive) PCa cells; assay: 2D proliferation assay (resazurin), 22Rv1; type: cell-based
Procedure: Cell cultures, proliferation assay and spheroid gro wth
PC3 and 22Rv1 cells were cultured in RPMI 1640 medium containing 10% FBS, 1% penicillin-streptomycin and 2 m M L-glutamine. All cells were regularly tested for mycoplasma contamination.
For the proliferation assay, cells were counted with a hemocytometer and seeded in triplicates in 96-well plates (4 .5x10^3 cells/well for 22Rv1 and 2.0x103 for PC3) and let adhere overnight at 37°C, 5% CO2. The following day, the medium was replaced with RPMI 1640 containing either the carrier […]
(§1) transfected with siRNA for BAZ2A , RLUC or KIF11, as detailed below. The cells were incubated for 1, 3, 6 (PC3) and 9 days (22Rv1) and the medium containing either the carrier or the inhibitors was replaced every 3 day s. Cell proliferation and viability were determined at day 1, 3, 6 and 9 by adding 10% resazurin sodium salt solution (0. 03 mg/ml powder from Sigma -Aldrich) directly into each well and incubating them for 4h at 37°C, 5% CO 2. The absorbance at 570/600 nm was measured using a Varioskan plate reader. The reduction of the resazur in sodium salt was calculated using the formula: (Abs x – Abs 0. 1%DMSO day1)/(Abs 0. 1%DMSO day9 - Abs 0. 1%DMSO day1). The growth rate was analysed using the linear regression algorithm of GraphPad Prism. […]

[4] = test system: PCa cells; assay: RT-qPCR of genes affected by BAZ2A genetic ablation; type: cell-based; conditions: 25 μM, 6 days, PC3 and 22Rv1
Procedure: equipped with a Leica DFC450C digital camera. The area of each spheroid was measured using ImageJ and the average area for each condition was calculated. The growth rate was analysed using the segmental linear regression algorithm of GraphPad Prism. The appropriateness of the model was evaluated by considering the R square values and the Replicates test (Suppl. Table 6).
Cells were counted and plated in 6 well (for RNA extraction) or 96 well (for growth curve) at a […]
and 4.5x10^3 cells/well for 22Rv1) and let attach overnight at 37°C, 5% CO2. […] The gene expression was analyzed after 6 days from the cells seeded in the 6 well, while the viability was analyzed in the same way as for the cells treated with the […]
Cells were previously counted and plated in 6 well at a fixed amount (60.000 cells/well for PC3; 135.000 cells/well for 22Rv1). The RNA was extracted using the phenol-chloroform method and its concentration was measured by Nano spectrophotometer. […]
Total protein content was extracted from cells transfected with siRNA B AZ2A or siRNA RLU C (negative control). […] Cells were lysed using RIPA buffer and protein concentration was determined by Bradford Reagent (Sigma-Aldrich), according to the manufacturer’s instructions. […]

[5] = test system: PC3 (AR‐negative) PCa cells; assay: 2D proliferation assay (resazurin), PC3; type: cell-based
Procedure: Cell cultures, proliferation assay and spheroid gro wth […]
streptomycin and 2 m M L-glutamine. All cells were regularly tested for mycoplasma contamination.
For the proliferation assay, cells were counted with a hemocytometer and seeded in triplicates in 96-well plates (4 .5x10^3 cells/well for 22Rv1 and 2.0x103 for PC3) and let adhere overnight at 37°C, […]
as §1

**Q.** Which “effect on TNBC cells” value [1] does the source give for `Cn1cc(CCn2cnc(-c3cnn(C)c3)c2-c2ccc(C#N)cc2)cn1` [BAZ2‐ICR] here?
**A.** did not affect TNBC cells

**Q.** And the “profile on panel of receptors, channels and transporters” value [2]?
**A.** clean

**Q.** What about the “effect on 2D growth of 22Rv1 cells” value ([3]; 2D‐cell culture, 22Rv1) of the same compound?
**A.** did not affect growth; also recorded: but not BAZ2‐ICR, reduces 2D growth

**Q.** What about the “effect on viability of 22Rv1 cells” value ([3]; 2D‐cell culture, 22Rv1) of the same compound?
**A.** did not affect growth or viability

**Q.** What about the “Slope (best-fit, linear regression of growth curve)” value (“Slope” below) ([3]; 22Rv1, 0.5 µM) of the same compound?
**A.** 0,1041

**Q.** What about the “Slope” value ([3]; 22Rv1, 5 µM) of the same compound?
**A.** 0,1046

**Q.** And the “Slope” value ([3]; 22Rv1, 10 µM)?
**A.** 0,1034

**Q.** What about the “Slope” value ([3]; 22Rv1, 25 µM) of the same compound?
**A.** 0,1066

**Q.** What about the “transcription of a set of genes affected by BAZ2A genetic ablation” value [4] of the same compound?
**A.** did not comparably alter the transcription

**Q.** What about the “effect on 2D growth of PC3 cells” value ([5]; 2D‐cell culture, PC3) of the same compound?
**A.** did not affect growth; also recorded: but not BAZ2‐ICR, reduces 2D growth

**Q.** And the “effect on viability of PC3 cells” value ([5]; 2D‐cell culture, PC3)?
**A.** did not affect growth or viability

**Q.** And the “Slope” value ([5]; PC3, 0.5 µM)?
**A.** 0,1625

**Q.** What about the “Slope” value ([5]; PC3, 5 µM) of the same compound?
**A.** 0,1599

**Q.** What about the “Slope” value ([5]; PC3, 10 µM) of the same compound?
**A.** 0,1532

**Q.** And the “Slope” value ([5]; PC3, 25 µM)?
**A.** 0,1580
